This passage reports MIC results from ChEMBL document CHEMBL3045689, “Synthesis of novel 2-(3-aryl-sydnon-4-ylidene)-5-substituted-[1,3,4]-thiadiazolylamines and [1,3,4]-thiadiazol-2-yl-3-oxo-[1,2,4]-triazoles as antimicrobial agents” (2012).

Broadly, the MIC is the smallest concentration in the dilution series that meets the test's criterion for growth inhibition. Higher therefore signals a less susceptible organism.

What all share (assay type): functional
The subject of assay [1] is Aspergillus niger. Briefly: Antifungal activity against Aspergillus niger after 18 to 24 hr by microbroth dilution method. For orientation: Dilution methods test growth across graded concentrations, often in twofold steps.
Assay [2] concerns Candida albicans. Kind of assay: Antifungal activity against Candida albicans after 18 to 24 hr by microbroth dilution method.
The test system of assay [3] is Bacillus cereus. Briefly: Antibacterial activity against Bacillus cereus after 18 to 24 hr by microbroth dilution method.
The test system of assay [4] is Escherichia coli. Kind of assay: Antibacterial activity against Escherichia coli after 18 to 24 hr by microbroth dilution method.

In brackets after ≈: the same amount, converted by molar mass.

Turning to `Cc1ccc(-[n+]2noc([O-])c2/C=N/c2nnc(-c3ccccc3)s2)cc1`, the MIC was 125 mg/L (≈ 344 µM) in assay [1], 3.9 mg/L (≈ 10.7 µM) in assay [2], 125 mg/L (≈ 344 µM) in assay [3] and 62.5 mg/L (≈ 172 µM) in assay [4].

Regarding `Cc1ccc(-[n+]2noc([O-])c2/C=N/c2nnc(C)s2)cc1`, the MIC in assay [1] was found to be 125 mg/L (≈ 415 µM); in assay [2] it was 31.2 mg/L (≈ 104 µM); in assay [3], 125 mg/L (≈ 415 µM); in assay [4], 62.5 mg/L (≈ 207 µM).

Turning to `Cc1ccc(-n2nc(C)n(-c3nnc(C)s3)c2=O)cc1`, the MIC in assay [1], in assay [2], in assay [3] and in assay [4] was 62.5 mg/L (≈ 218 µM) in each case.

Regarding `Cc1nnc(/N=C/c2c([O-])on[n+]2-c2ccc(Cl)cc2)s1`, the MIC in assay [1] is 125 mg/L (≈ 389 µM); in assay [2] it was 7.8 mg/L (≈ 24.2 µM); in assay [3], 62.5 mg/L (≈ 194 µM); in assay [4], 62.5 mg/L (≈ 194 µM).

In the case of `CC(=O)N1CCN(c2ccc(OCC3COC(Cn4ccnc4)(c4ccc(Cl)cc4Cl)O3)cc2)CC1` (stereo not drawn) [KETOCONAZOLE], the MIC in assay [1] and in assay [2] was 0.97 mg/L (≈ 1.83 µM) throughout.

With `COc1ccc(-[n+]2noc([O-])c2/C=N/c2nnc(-c3ccccc3)s2)cc1`, the MIC in assay [1], in assay [2], in assay [3] and in assay [4] was 62.5 mg/L (≈ 165 µM) each time.

For the compound `Cc1nnc(-n2c(C)nn(-c3ccc(Cl)cc3)c2=O)s1`, the MIC in assay [1] was 7.8 mg/L (≈ 25.3 µM); in assay [2], 7.8 mg/L (≈ 25.3 µM); in assay [3], 15.6 mg/L (≈ 50.7 µM); in assay [4], 15.6 mg/L (≈ 50.7 µM).

Consider `Cc1nnc(/N=C/c2c([O-])on[n+]2-c2ccccc2)s1`, for which the MIC in assay [1] stood at 125 mg/L (≈ 435 µM); in assay [2], 31.2 mg/L (≈ 109 µM); in assay [3] it was 250 mg/L (≈ 870 µM); in assay [4], 62.5 mg/L (≈ 218 µM).

Regarding `[O-]c1on[n+](-c2ccc(Cl)cc2)c1/C=N/c1nnc(-c2ccccc2)s1`, the MIC in assay [1] came to 31.2 mg/L (≈ 81.4 µM); in assay [2] it was 7.8 mg/L (≈ 20.3 µM); in assay [3], 62.5 mg/L (≈ 163 µM); in assay [4] it was 31.2 mg/L (≈ 81.4 µM).

Take `O=C(N[C@H](CO)[C@H](O)c1ccc([N+](=O)[O-])cc1)C(Cl)Cl` [CHLORAMPHENICOL]: the minimum inhibitory concentration (MIC) in assay [3] amounted to 12.5 mg/L (≈ 38.7 µM); in assay [4], 1.95 mg/L (≈ 6.03 µM).

With `COc1ccc(-n2nc(C)n(-c3nnc(C)s3)c2=O)cc1`, the MIC in assay [1] turned out to be 7.8 mg/L (≈ 25.7 µM); in assay [2], 31.2 mg/L (≈ 103 µM); in assay [3], 31.5 mg/L (≈ 104 µM); in assay [4], 15.6 mg/L (≈ 51.4 µM).

In the case of `Cc1nnc(-n2c(C)nn(-c3ccccc3)c2=O)s1`, the minimum inhibitory concentration (MIC) in assay [1] is 62.5 mg/L (≈ 229 µM); in assay [2], 31.2 mg/L (≈ 114 µM); in assay [3], 125 mg/L (≈ 457 µM); in assay [4], 62.5 mg/L (≈ 229 µM).

Consider `Cc1nn(-c2ccccc2)c(=O)n1-c1nnc(-c2ccccc2)s1`, for which the MIC is 62.5 mg/L (≈ 186 µM) in assay [1], 31.2 mg/L (≈ 93.2 µM) in assay [2], 125 mg/L (≈ 373 µM) in assay [3] and 31.2 mg/L (≈ 93.2 µM) in assay [4].

Turning to `[O-]c1on[n+](-c2ccccc2)c1/C=N/c1nnc(-c2ccccc2)s1`, the MIC came out at 125 mg/L (≈ 358 µM) in assay [1], 31.2 mg/L (≈ 89.4 µM) in assay [2], 125 mg/L (≈ 358 µM) in assay [3] and 31.2 mg/L (≈ 89.4 µM) in assay [4].

With `COc1ccc(-[n+]2noc([O-])c2/C=N/c2nnc(C)s2)cc1`, the MIC is 125 mg/L (≈ 394 µM) in assay [1], 7.8 mg/L (≈ 24.6 µM) in assay [2], 125 mg/L (≈ 394 µM) in assay [3] and 15.6 mg/L (≈ 49.2 µM) in assay [4].

On to `Cc1nn(-c2ccc(Cl)cc2)c(=O)n1-c1nnc(-c2ccccc2)s1`, for which the MIC in assay [1] came out at 15.6 mg/L (≈ 42.2 µM); in assay [2], 7.8 mg/L (≈ 21.1 µM); in assay [3] it was 15.6 mg/L (≈ 42.2 µM); in assay [4], 31.2 mg/L (≈ 84.5 µM).

`Cc1ccc(-n2nc(C)n(-c3nnc(-c4ccccc4)s3)c2=O)cc1`: the minimum inhibitory concentration (MIC) in assay [1] came to 62.5 mg/L (≈ 179 µM); in assay [2], 125 mg/L (≈ 358 µM); in assay [3], 62.5 mg/L (≈ 179 µM); in assay [4], 15.6 mg/L (≈ 44.6 µM).

Regarding `COc1ccc(-n2nc(C)n(-c3nnc(-c4ccccc4)s3)c2=O)cc1`, the minimal inhibitory concentration (MIC) in assay [1] amounted to 62.5 mg/L (≈ 171 µM); in assay [2], 31.2 mg/L (≈ 85.5 µM); in assay [3] it was 125 mg/L (≈ 342 µM); in assay [4], 15.6 mg/L (≈ 42.7 µM).
